Source: patent US20090274577A1, “STE[…] TREATMENT WITH REDUCTANT AND OXIDANT” (priority 2008, published 2009)
Where two headings read alike, the source gives them in different places.

Tests used:
[1] = cited from earlier work
[2] = system: Bacillus atrophaeus spores; experiment: Filtering test: spores incubated in test solution, filtered, filter half treated with ozone, colonies counted; type: cell-based; conditions: test solution followed by ~350 ppm ozone, 5 or 10 min
Text: Bacterial spores: Stainless steel discs with Bacillus atrophaeus spores (log 6, cat #1-6100ST, Raven Biological Laboratories).
An ozone generator provided ˜350 ppm O3, and a flow rate of ˜25 l/min, using setting No. 1.
Commercially available sterile single filters (pore size 0.45 μm) and an analytical test filter funnel from Nalgene was used (F-2161, Sigma-Aldrich). For suction, a Rietschle Thomas DTF 6 vacuum pump was used, with a flow rate of ˜6 m3/h, providing a vacuum of ˜150 mbar abs.
Filtering test: In filtering test experiments the spore solutions were prepared in a volume of 1 ml and processed. Thereto, after an incubation period of 5 min in the appropriate buffer at 40° C. using a rotary shaker, an aliquot of 250 μl of the suspension was transferred onto a sterile single use filters. The filter was washed two times with 10 ml of sterile water. The filter was retrieved under sterile conditions, and the filter was cut into halves using a sterile scissor. Only one half of the filter was treated with ozone, while the other half was kept as control, i.e. without ozone treatment. Finally, both halves were placed onto a TSA plate and incubated at 30° C. Initially Nutrient Agar plates were used, but later on a switch was made to TSA plates, in order to utilize the more pronounced reddish colour of Bacillus atrophaeus colonies which was facilitating analysis and documentation. […]

Compound: O=[O+][O-] [ozone]
- half-life of ozone in gas ([1]; 20 ° C.): approximately 3 days
- half-life of ozone in gas ([1]; 250° C.): 1.5 s
- sterilizing/disinfecting/killing effect (in words) [2]: increased after 10 min compared to 5 min
